Results from US4250176A, “Piperazine derivatives” (priority 1979, dated 1981).
In brackets after ≈: the same amount, converted by molar mass. Where a name gives a salt, the structure may show the parent alone. Read-outs that look alike come from different tables or passages of the source.

How the values were obtained:
[1] = system: Guinea-pig ileum strips, histamine-induced contraction; test: Anti-histamine activity in "vitro": histamine-induced spasms of guinea-pig ileum strips; format: cell-based; conditions: for IC50: Cavia porcellus, 5 min
Description: The histamine--(0.5 mg/liter) induced spasms are recorded Kymographically with an isotonic lever giving a 5-fold magnification.

[2] = system: histamine paw oedema in guinea pigs; test: Histamine paw oedema in guinea pigs; format: in vivo, guinea pig; conditions: for minimal effective dose: Cavia porcellus, read-out: Anaphylaxis in guinea pigs oral effective dose in mg/kg: Histamine oedema
Procedure, shortened: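 Guinea pigs of 400–500 g were dosed orally with compound or saline 24 h after subplantar ovalbumin antiserum sensitisation in the left hind paw. Two hours after dosing, histamine 50 μg was injected subplantar into the right hind paw to induce oedema.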

[3] = system: Guinea pigs sensitized to ovalbumin (anaphylactic shock); test: Anaphylaxis in guinea pigs: protection against death after ovalbumin challenge (survival); format: in vivo, guinea pig; conditions: for ED50: Cavia porcellus, read-out: Anaphylaxis in guinea pigs oral effective dose in mg/kg: Survival
Procedure, shortened: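 Guinea pigs (400–500 g) sensitized by subplantar ovalbumin antiserum, dosed orally 24 h later. ED50 is the oral dose protecting 50% of animals from death.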

[4] = Table I-b, histamine 0.5 mg/liter, 5 minutes incubation, concentration giving significant inhibition (50%) of the contraction, read-out: Histamine in "vitro" (ileum) effective conc.
[5] = Table I-b, oral dose giving paw reaction below 10 units 10 minutes after 50 μg histamine s.p., 2 hours after dosing
[6] = Table I-b, estimated ED50, oral, protection against death after i.v. 0.6 mg ovalbumin
[7] = Table I-e, histamine 0.5 mg/liter, 5 minutes incubation, concentration giving significant inhibition (50%) of the contraction, read-out: Histamine in "vitro" (ileum) effective dose
[8] = Table I-e, oral dose giving paw reaction below 10 units 10 minutes after 50 μg histamine s.p., 2 hours after dosing
[9] = Table I-e, estimated ED50, oral, protection against death after i.v. 0.6 mg ovalbumin

Row | SMILES | IC50 [1, 4] [mg/L] | minimal effective dose [2, 5] [mg/kg] | ED50 [3, 6] [mg/kg] | other results
1 | Cl.Cl.Cl.Clc1ccccc1C(c1ccccc1)N1CCN(CCCn2cnc3ccccc32)CC1.O.O (stereo not drawn) [I-b: M=H, R1=H, (CH2)3, R6=2-Cl, R7=H, 1-[3-{4-[(2-chlorophenyl)phenylmethyl]-1-piperazinyl}propyl]1H-benzimidazole trihydrochloride dihydrate] | 0.01 | 1.25 | 1.25 | –
2 | Clc1ccc(C(c2ccccc2)N2CCN(CCCn3cnc4ccccc43)CC2)cc1 (stereo not drawn) [I-b: M=H, R1=H, (CH2)3, R6=4-Cl, R7=H, 1-[3-{4-[(4-chlorophenyl)phenylmethyl]-1-piperazinyl}propyl]-1H-benzimidazole] | 0.01 (≈ 0.0225 µM) | 0.31 | 0.08 | –
3 | Fc1ccc(C(c2ccc(F)cc2)N2CCN(CCCn3cnc4ccccc43)CC2)cc1.O [I-b: M=H, R1=H, (CH2)3, R6=4-F, R7=4-F, 1-[3-{4-[bis(4-fluorophenyl)methyl]-1-piperazinyl}propyl]-1H-benzimidazole hydrate] | 0.02 | 0.31 | 0.16 | –
4 | Fc1ccc(C(c2ccccc2)N2CCN(CCCn3cnc4ccccc43)CC2)cc1 (stereo not drawn) [I-b: M=H, R1=H, (CH2)3, R6=4-F, R7=H] | 0.005 (≈ 0.0117 µM) | 0.31 | 0.31 | –
5 | c1ccc(C(c2ccccc2)N2CCN(CCCn3cnc4ccccc43)CC2)cc1 [I-b: M=H, R1=H, (CH2)3, R6=H, R7=H] | 0.0025 (≈ 0.00609 µM) | 0.16 | 0.08 | –
6 | CC(C)O.Cl.Cl.Cl.Cl.Cl.Cl.Clc1cccc(C(c2ccccc2)N2CCN(CCCn3cnc4ccccc43)CC2)c1.Clc1cccc(C(c2ccccc2)N2CCN(CCCn3cnc4ccccc43)CC2)c1.O.O (stereo not drawn) [I-b: M=H, R1=H, (CH2)4, R6=3-Cl, R7=H, 1-[3-{4-[(3-chlorophenyl)phenylmethyl]-1-piperazinyl}propyl]-1H-benzimidazole trihydrochloride.hydrate.hemi-2-propanolate] | – | – | – | Histamine in "vitro" (ileum) effective conc. ([1]; Table I-b, histamine 0.5 mg/liter, 5 minutes incubation, concentration giving significant inhibition (50%) of the contraction): 0.01 mg/L; Anaphylaxis in guinea pigs oral effective dose in mg/kg: Histamine oedema [2, 5]: 1.25 mg/kg; Anaphylaxis in guinea pigs oral effective dose in mg/kg: Survival [3, 6]: 1.25 mg/kg
7 | Fc1ccc(C(c2ccc(F)cc2)N2CCN(CCCCn3cnc4ccccc43)CC2)cc1 [I-b: M=H, R1=H, (CH2)4, R6=4-F, R7=4-F, 1-[4-{4-[bis(4-fluorophenyl)methyl]-1-piperazinyl}butyl]-1H-benzimidazole] | 0.005 (≈ 0.0109 µM) | 0.31 | 0.31 | –
8 | Fc1ccc(C(c2ccccc2)N2CCN(CCCCn3cnc4ccccc43)CC2)cc1 (stereo not drawn) [I-b: M=H, R1=H, (CH2)4, R6=4-F, R7=H, 1-[4-{4-[(4-fluorophenyl)phenylmethyl]-1-piperazinyl}butyl]-1H-benzimidazole] | 0.005 (≈ 0.0113 µM) | 0.16 | 0.08 | –
9 | c1ccc(C(c2ccccc2)N2CCN(CCCCn3cnc4ccccc43)CC2)cc1 [I-b: M=H, R1=H, (CH2)4, R6=H, R7=H, 1-[4-[4-(diphenylmethyl)-1-piperazinyl]butyl}-1H-benzimidazole] | 0.0025 (≈ 0.00589 µM) | 0.16 | 0.16 | –
10 | Sc1nc2ccccc2n1CCCN1CCN(C(c2ccccc2)c2ccccc2)CC1 [I-b: M=HS, R1=H, (CH2)3, R6=H, R7=H, 1-{3-[4-(diphenylmethyl)-1-piperazinyl]propyl}-1H-benzimidazole-2-thiol] | 0.01 (≈ 0.0226 µM) | 1.25 | 0.63 | –
11 | Cl.Cl.O=c1oc2ccccc2n1CCCN1CCN(C(c2ccccc2)c2ccccc2)CC1 [I-c: Y=O, 3-{3-[4-(diphenylmethyl)-1-piperazinyl]propyl}-2(3H)benzoxazolone dihydrochloride] | – | – | – | IC50 ([1]; read-out: Histamine in "vitro" (ileum) effective conc. in mg/l): 0.01 mg/L; minimal effective dose ([2]; po, 2 h): 2.5 mg/kg; ED50 ([3]; po): 0.63 mg/kg
12 | O=c1sc2ccccc2n1CCCN1CCN(C(c2ccccc2)c2ccccc2)CC1 [I-c: Y=S, 3-{3-[4-(diphenylmethyl)-1-piperazinyl]propyl}-2(3H)-benzothiazolone dihydrochloride.hemihydrate] | – | – | – | IC50 ([1]; Table I-c, histamine 0.5 mg/liter, 5 minutes incubation, concentration giving significant inhibition (50%) of the contraction, read-out: Histamine in "vitro" (ileum) effective conc.): 0.01 mg/L; minimal effective dose ([2]; Table I-c, oral dose giving paw reaction below 10 units 10 minutes after 50 μg histamine s.p., 2 hours after dosing): 1.25 mg/kg; ED50 ([3]; Table I-c, estimated ED50, oral, protection against death after i.v. 0.6 mg ovalbumin): 1.25 mg/kg
13 | O=c1[nH]c2ccccc2n1CCCN1CCN(C(c2ccc(Cl)cc2)c2cccnc2)CC1 (stereo not drawn) [I-e: Ar1=4-Cl-C6H4, Ar2=3-pyridinyl, 1-[3-{4-[(4-chlorophenyl)(3-pyridinyl)methyl]-1-piperazinyl}propyl]-1,3-dihydro-2H-benzimidazol-2-one] | – | – | – | IC50 [1, 7]: 0.08 mg/L (≈ 0.173 µM); minimal effective dose [2, 8]: 2.5 mg/kg; ED50 [3, 9]: 1.25 mg/kg
14 | O=c1[nH]c2ccccc2n1CCCN1CCN(C(c2ccc(F)cc2)c2cccnc2)CC1 (stereo not drawn) [I-e: Ar1=4-FC6H4, Ar2=3-pyridinyl, 1-[3-{4-[(4-fluorophenyl)(3-pyridinyl)methyl]-1-piperazinyl}propyl]-1,3-dihydro-2H-benzimidazol-2-one] | – | – | – | IC50 [1, 7]: 0.08 mg/L (≈ 0.18 µM); minimal effective dose [2, 8]: < 2.5 mg/kg; ED50 [3, 9]: < 2.5 mg/kg
15 | CCOC(=O)CCn1c(=O)n(CCCN2CCN(C(c3ccccc3)c3ccccc3)CC2)c2ccccc21 [ethyl 3-{3-[4-(diphenylmethyl)-1-piperazinyl]propyl}-2,3-dihydro-2-oxo-1H-benzimidazole-1-propanoate dihydrochloride. dihydrate] | – | – | – | IC50 ([1]; Table I-a, histamine 0.5 mg/liter, 5 minutes incubation, concentration giving significant inhibition (50%) of the contraction, read-out: Histamine in "vitro" (ileum) effective conc.): 0.005 mg/L; minimal effective dose ([2]; Table I-a, oral dose giving paw reaction below 10 units 10 minutes after 50 μg histamine s.p., 2 hours after dosing): 0.63 mg/kg; ED50 ([3]; Table I-a, estimated ED50, oral, protection against death after i.v. 0.6 mg ovalbumin): 0.63 mg/kg
16 | COC(=O)Nc1nc2ccccc2n1CCCN1CCN(C(c2ccccc2)c2ccccc2)CC1 [methyl [1-{3-[4-(diphenylmethyl)-1-piperazinyl]propyl}-1H-benzimidazol-2-yl]carbamate] | ≤ 0.16 | 2.5 | 2.5 | –
